From ChEMBL document CHEMBL1130780, “Synthesis of a cosalane analog with an extended polyanionic pharmacophore conferring enhanced potency as an anti-HIV agent” (Bioorg Med Chem Lett, 1998) come the findings set out here.

The nature of test [1]: The compound was tested for inhibitory activity against gp120 binding to CD4 of peripheral blood lymphocytes (PBL). The test is classed as functional, Homo sapiens.
The subject of test [2] is CEM-SS. Nature of the test: Inhibitory activity against cytopathic effect of HIV-IIIB strain in CEM-SS cells. The test is classed as functional, cell-based. The following applies: Homo sapiens. In general terms: Cytopathic effects are the visible damage that an infection or toxin causes in cultured cells.
Test [3] deals with CEM-SS. Briefly: Inhibitory activity against cytopathic effect of VIHU(NSI) clinical isolate in CEM-SS cells. To be noted: Homo sapiens. The class given is functional, cell-based.
Test [4] is described as follows: The compound was tested for inhibitory against fusion of HL-2/3 cells towards HeLa-CD4-LTR-beta-gal cells. The test is classed as functional, cell-based, Homo sapiens.
The test system of test [5] is CEM-SS. Briefly: The compound was tested for inhibition of HIV-1 attachment to CEM-SS cells. The test is classed as functional, cell-based. To be noted: Homo sapiens.
Test [6] has as its system CEM-SS. Nature of the test: Inhibitory activity against cytopathic effect of HIV-1RF in CEM-SS cells. The class given is functional, cell-based. To be noted: Homo sapiens.

Each structure is given as a SMILES string.

As a reminder, the IC50 is the concentration that gives 50% inhibition. Read a high IC50 as a need for much substance. In general, EC50 refers to the concentration giving half of the maximal effect. High values mean a less potent agent, low ones a more potent agent. `CC(C)CCCC(C)[C@H]1CC[C@H]2[C@@H]3CCC4C[C@@H](CCC=C(c5cc(Cl)c(O)c(C(=O)O)c5)c5cc(Cl)c(O)c(C(=O)O)c5)CC[C@]4(C)[C@H]3CC[C@]12C` (stereo partly specified) yielded an IC50 in test [1] of 7.8 µM. Further, the EC50 in the test with CEM-SS [2] was 3.4 µM; in the test with CEM-SS [3] it was 80.2 µM.

On to `CC(C)CCCC(C)[C@H]1CC[C@H]2[C@@H]3CCC4C[C@@H](CCC=C(c5cc(Cl)c(OCc6ccc(C(=O)O)cc6)c(C(=O)O)c5)c5cc(Cl)c(OCc6ccc(C(=O)O)cc6)c(C(=O)O)c5)CC[C@]4(C)[C@H]3CC[C@]12C` (stereo partly specified), for which the IC50 in test [4] amounted to 2.7 µM; with CEM-SS [5], 72 µM. This compound came in with an EC50 in the test on CEM-SS [6] of 0.55 µM.
